# ChEMBL document CHEMBL3045033, “Synthesis of new potential anticancer agents based on 4-thiazolidinone and oleanane scaffolds” (Med Chem Res, 2012)
# Values joined by “and” are separate entries in the source; they are usually repeats but may differ in a detail not shown here. Equal entries are not always repeated.
# Legend:
# Format in all cases: functional
# SK-OV-3 = assay: Cytotoxicity against Homo sapiens (human) SKOV3 cells at 10^-4 to 10^-8 M after 48 hr by SRB assay; details: SK-OV-3, 48 h, read-out: pTGI (converted)
# SF-539 [1] = assay: Cytotoxicity against Homo sapiens (human) SF539 cells at 10^-4 to 10^-8 M after 48 hr by SRB assay; details: SF-539, 48 h, read-out: pTGI (converted)
# NCI-H460 = assay: Cytotoxicity against Homo sapiens (human) NCI-H460 cells at 10^-4 to 10^-8 M after 48 hr by SRB assay; details: NCI-H460, 48 h, read-out: pTGI (converted)
# OVCAR-8 = assay: Cytotoxicity against Homo sapiens (human) OVCAR8 cells at 10^-4 to 10^-8 M after 48 hr by SRB assay; details: OVCAR-8, 48 h, read-out: pTGI (converted)
# MCF7 = assay: Cytotoxicity against Homo sapiens (human) MCF7 cells at 10^-4 to 10^-8 M after 48 hr by SRB assay; details: MCF7, 48 h, read-out: pTGI (converted)
# PC-3 = assay: Cytotoxicity against Homo sapiens (human) PC3 cells at 10^-4 to 10^-8 M after 48 hr by SRB assay; details: PC-3, 48 h, read-out: pTGI (converted)
# NCI-H322M = assay: Cytotoxicity against Homo sapiens (human) NCI-H322M cells at 10^-4 to 10^-8 M after 48 hr by SRB assay; details: read-out: pTGI (converted)
# UO-31 [2] = assay: Cytotoxicity against Homo sapiens (human) UO31 cells at 10^-4 to 10^-8 M after 48 hr by SRB assay; details: UO-31, 48 h, read-out: pTGI (converted)
# OVCAR-3 = assay: Cytotoxicity against Homo sapiens (human) OVCAR3 cells after 48 hr by SRB assay
# HOP-62 = assay: Cytotoxicity against Homo sapiens (human) HOP62 cells after 48 hr by SRB assay
# NCI-H23 = assay: Cytotoxicity against Homo sapiens (human) NCI-H23 cells at 10^-4 to 10^-8 M after 48 hr by SRB assay; details: NCI-H23, 48 h, read-out: pTGI (converted)
# HL-60(TB) = assay: Cytotoxicity against Homo sapiens (human) HL-60(TB) cells at 10^-4 to 10^-8 M after 48 hr by SRB assay; details: HL-60, 48 h, read-out: pTGI (converted)
# U-251 [3] = assay: Cytotoxicity against Homo sapiens (human) U251 cells after 48 hr by SRB assay
# UACC-257 [4] = assay: Cytotoxicity against Homo sapiens (human) UACC257 cells at 10^-4 to 10^-8 M after 48 hr by SRB assay; details: UACC-257, 48 h, read-out: pTGI (converted)
# SF-539 [5] = assay: Cytotoxicity against Homo sapiens (human) SF539 cells after 48 hr by SRB assay
# UACC-257 [6] = assay: Cytotoxicity against Homo sapiens (human) UACC257 cells after 48 hr by SRB assay
# KM12 = assay: Cytotoxicity against Homo sapiens (human) KM12 cells at 10^-4 to 10^-8 M after 48 hr by SRB assay; details: KM12, 48 h, read-out: pTGI (converted)
# SK-MEL-5 [7] = assay: Cytotoxicity against Homo sapiens (human) SK-MEL-5 cells after 48 hr by SRB assay
# SF-268 = assay: Cytotoxicity against Homo sapiens (human) SF268 cells at 10^-4 to 10^-8 M after 48 hr by SRB assay; details: SF-268, 48 h, read-out: pTGI (converted)
# LOX IMVI = assay: Cytotoxicity against Homo sapiens (human) LOXIMVI cells after 48 hr by SRB assay
# SK-MEL-5 [8] = assay: Cytotoxicity against Homo sapiens (human) SK-MEL-5 cells at 10^-4 to 10^-8 M after 48 hr by SRB assay; details: SK-MEL-5, 48 h, read-out: pTGI (converted)
# MOLT-4 = assay: Cytotoxicity against Homo sapiens (human) MOLT4 cells at 10^-4 to 10^-8 M after 48 hr by SRB assay; details: MOLT-4, 48 h, read-out: pTGI (converted)
# U-251 [9] = assay: Cytotoxicity against Homo sapiens (human) U251 cells at 10^-4 to 10^-8 M after 48 hr by SRB assay; details: U-251, 48 h, read-out: pTGI (converted)
# OVCAR-5 = assay: Cytotoxicity against Homo sapiens (human) OVCAR5 cells at 10^-4 to 10^-8 M after 48 hr by SRB assay; details: OVCAR-5, 48 h, read-out: pTGI (converted)
# CAKI-1 = assay: Cytotoxicity against Homo sapiens (human) Caki1 cells at 10^-4 to 10^-8 M after 48 hr by SRB assay; details: CAKI-1, 48 h, read-out: pTGI (converted)
# SR = assay: Cytotoxicity against Homo sapiens (human) SR cells after 48 hr by SRB assay
# BT-549 = assay: Cytotoxicity against Homo sapiens (human) BT549 cells at 10^-4 to 10^-8 M after 48 hr by SRB assay; details: BT-549, 48 h, read-out: pTGI (converted)
# 786-0 = assay: Cytotoxicity against Homo sapiens (human) 786-0 cells at 10^-4 to 10^-8 M after 48 hr by SRB assay; details: 786-0, 48 h, read-out: pTGI (converted)
# A498 = assay: Cytotoxicity against Homo sapiens (human) A498 cells after 48 hr by SRB assay
# [10] = Cytotoxicity against Homo sapiens (human) NCI-ADR-RES cells after 48 hr by SRB assay
# HCT-116 = assay: Cytotoxicity against Homo sapiens (human) HCT116 cells at 10^-4 to 10^-8 M after 48 hr by SRB assay; details: HCT-116, 48 h, read-out: pTGI (converted)
# UO-31 [11] = assay: Cytotoxicity against Homo sapiens (human) UO31 cells after 48 hr by SRB assay
# OVCAR-4 = assay: Cytotoxicity against Homo sapiens (human) OVCAR4 cells at 10^-4 to 10^-8 M after 48 hr by SRB assay; details: OVCAR-4, 48 h, read-out: pTGI (converted)
# ACHN = assay: Cytotoxicity against Homo sapiens (human) ACHN cells after 48 hr by SRB assay
# CCRF-CEM = assay: Cytotoxicity against Homo sapiens (human) CCRF-CEM cells at 10^-4 to 10^-8 M after 48 hr by SRB assay; details: read-out: pTGI (converted)
# EKVX = assay: Cytotoxicity against Homo sapiens (human) EKVX cells at 10^-4 to 10^-8 M after 48 hr by SRB assay; details: read-out: pTGI (converted)
# SW-620 = assay: Cytotoxicity against Homo sapiens (human) SW620 cells after 48 hr by SRB assay
# [12] = Homo sapiens, NCI/ADR-RES, 48 h
Compound,TGI (SK-OV-3),TGI (SF-539 [1]),TGI (NCI-H460),TGI (OVCAR-8),TGI (MCF7),TGI (PC-3),TGI (NCI-H322M),TGI (UO-31 [2]),TGI (NCI-H23),TGI (HL-60(TB)),TGI (UACC-257 [4]),TGI (KM12),TGI (SF-268),TGI (SK-MEL-5 [8]),TGI (MOLT-4),TGI (U-251 [9]),TGI (OVCAR-5),TGI (CAKI-1),TGI (BT-549),TGI (786-0),other results
COC(=O)[C@]12CCC(C)(C)C[C@H]1C1=CC[C@@H]3[C@@]4(C)CC/C(=N\O)C(C)(C)[C@@H]4CC[C@@]3(C)[C@]1(C)CC2,> 100 µM,41.7 µM,51.3 µM,> 100 µM,40.7 µM,44.7 µM,> 100 µM,45.7 µM,38 µM,> 100 µM,> 100 µM,> 100 µM,56.2 µM,63.1 µM,> 100 µM,33.9 µM,55 µM,47.9 µM,> 100 µM,34.7 µM,"GI50 (OVCAR-3; Homo sapiens, OVCAR-3, 48 h): 18.6 µM; GI50 (HOP-62; Homo sapiens, HOP-62, 48 h): 21.4 µM; GI50 (U-251 [3]; Homo sapiens, U-251, 48 h): 19.1 µM; GI50 (SF-539 [5]; Homo sapiens, SF-539, 48 h): 20.9 µM; GI50 (UACC-257 [6]; Homo sapiens, UACC-257, 48 h): 33.1 µM; GI50 (SK-MEL-5 [7]; Homo sapiens, SK-MEL-5, 48 h): 21.4 µM; GI50 (LOX IMVI; Homo sapiens, LOX IMVI, 48 h): 19.5 µM; GI50 (SR; Homo sapiens, SR, 48 h): 26.9 µM; GI50 (A498; Homo sapiens, A498, 48 h): 28.2 µM; GI50 [10, 12]: 37.2 µM; TGI (HCT-116): 56.2 µM; GI50 (UO-31 [11]; Homo sapiens, UO-31, 48 h): 22.4 µM; TGI (OVCAR-4): > 100 µM; GI50 (ACHN; Homo sapiens, ACHN, 48 h): 20.9 µM; TGI (CCRF-CEM): 81.3 µM; TGI (EKVX): 72.4 µM; GI50 (SW-620; Homo sapiens, SW-620, 48 h): 20 µM"
CC1(C)CC[C@@]23CC[C@]4(C)[C@@](OC2=O)([C@@H]3C1)[C@@H](Br)C[C@@H]1[C@@]2(C)CC/C(=N\O)C(C)(C)[C@@H]2CC[C@]14C,> 100 µM,> 100 µM,> 100 µM,53.7 µM,60.3 µM,> 100 µM,> 100 µM,> 100 µM,> 100 µM,> 100 µM,> 100 µM,> 100 µM,> 100 µM,> 100 µM,> 100 µM,> 100 µM,> 100 µM,> 100 µM,69.2 µM,> 100 µM,"GI50 (OVCAR-3; Homo sapiens, OVCAR-3, 48 h): 11.5 µM; GI50 (HOP-62; Homo sapiens, HOP-62, 48 h): 40.7 µM; GI50 (U-251 [3]; Homo sapiens, U-251, 48 h): 22.4 µM; GI50 (SF-539 [5]; Homo sapiens, SF-539, 48 h): 20 µM; GI50 (UACC-257 [6]; Homo sapiens, UACC-257, 48 h): 14.8 µM; GI50 (SK-MEL-5 [7]; Homo sapiens, SK-MEL-5, 48 h): 26.3 µM; GI50 (LOX IMVI; Homo sapiens, LOX IMVI, 48 h): 10 µM; GI50 (SR; Homo sapiens, SR, 48 h): 2.14 µM; GI50 (A498; Homo sapiens, A498, 48 h): 49 µM; GI50 [10, 12]: 26.9 µM; TGI (HCT-116): > 100 µM; GI50 (UO-31 [11]; Homo sapiens, UO-31, 48 h): 40.7 µM; TGI (OVCAR-4): > 100 µM; GI50 (ACHN; Homo sapiens, ACHN, 48 h): 53.7 µM; TGI (CCRF-CEM): > 100 µM; TGI (EKVX): > 100 µM; GI50 (SW-620; Homo sapiens, SW-620, 48 h): 6.76 µM"
COC(=O)[C@]12CCC(C)(C)C[C@H]1C1=CC[C@@H]3[C@@]4(C)CC/C(=N\OC(=O)/C=C5/SC(=O)NC5=O)C(C)(C)[C@@H]4CC[C@@]3(C)[C@]1(C)CC2,34.7 µM,3.63 µM,9.55 µM,15.1 µM,10.7 µM,14.1 µM,32.4 µM,2.95 µM,12.3 µM,5.37 µM,24.5 µM,12.6 µM,10.7 µM,17.8 µM,7.41 µM,3.39 µM,33.9 µM,16.2 µM,9.12 µM,11.5 µM,GI50 (OVCAR-3): 6.31 µM and 1.91 µM; GI50 (HOP-62): 64.6 µM and 20 µM; GI50 (U-251 [3]): 6.76 µM and 1.78 µM; GI50 (SF-539 [5]): 7.59 µM and 1.78 µM; GI50 (UACC-257 [6]): 51.3 µM and 11.5 µM; GI50 (SK-MEL-5 [7]): 43.7 µM and 5.25 µM; GI50 (LOX IMVI): 6.61 µM and 1.48 µM; GI50 (SR): 8.91 µM and 1.7 µM; GI50 (A498): 17.8 µM and 2.57 µM; GI50 [10]: 61.7 µM and 7.59 µM; TGI (HCT-116): 3.39 µM; GI50 (UO-31 [11]): 5.75 µM and 1.48 µM; TGI (OVCAR-4): 6.92 µM; GI50 (ACHN): 1.74 µM and 6.61 µM; TGI (CCRF-CEM): 7.76 µM; TGI (EKVX): 22.4 µM; GI50 (SW-620): 7.59 µM and 2 µM
